Test results from US20110280940A1, “Di-Vanilloyl And Tri-Vanilloyl Derivatives For Use In Anti-Cancer Therapy” (priority 2008, published 2011).
Where two headings read alike, the source gives them in different places.

Key:
Type in all cases: cell-based
[1] = system: A549 non-small-cell-lung cancer cell line; experiment: Cellular imaging (quantitative videomicroscopy), global growth ratio, A549; settings: Homo sapiens, 72 h, read-out: Global Grow Ratio Treated/Ct (GGR T/Ct) determined by Video Quantitative microscopy, A549
[2] = system: Eleven human cancer cell lines; experiment: MTT colorimetric assay, across the eleven human cancer cell lines
Summary of the method: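 Growth is measured as remaining living cells relative to untreated controls after 72 h at 37 °C with compound at 10^-8 to 10^-4 M. Readout is MTT formazan absorbance at 570 nm.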

[3] = system: U373-MG glioma cell line; experiment: Cellular imaging (quantitative videomicroscopy), global growth ratio, U373; settings: Homo sapiens, 72 h, read-out: Global Grow Ratio Treated/Ct (GGR T/Ct) determined by Video Quantitative microscopy, U373
[4] = mean ± SEM over the 11 human cancer cell lines, MTT, 72 hours, read-out: In Vitro IC50 Growth Inhibitory Values, m ± SEM
[5] = Homo sapiens, 72 h, read-out: In Vitro IC50 Growth Inhibitory Values, m ± SEM

Row | IC50 [2, 4] [µM] | Structure (SMILES) | activity at 50 µM [1] [%] | IC50 [2, 5] [µM] | further results
1 | 49 | COc1cc(C(=O)OCCCCCCOC(=O)c2ccc(O)c(OC)c2)ccc1O [DLT11, Hexane-1,6-diyl bis-(4-hydroxy-3-methoxybenzoate)] | 20 |  | IC50 ([2]; Homo sapiens, MTT colorimetric assay, read-out: IC50 growth inhibitory values, range depending on the cancer cell line analyzed): 22 to 71 µM
2 |  | O=C(OCc1cc(COC(=O)c2ccc(O)c(Cl)c2)cc(COC(=O)c2ccc(O)c(Cl)c2)c1)c1ccc(O)c(Cl)c1 [DLT95-Cl, [3,5-bis[(4-hydroxy-3-chloro-benzoyl)oxymethyl]phenyl]methyl 4-hydroxy-3-chloro-benzoate] |  | 29 ± 1 | activity at 31 µM [3]: 50%
3 |  | O=C(OCc1cc(COC(=O)c2ccc(O)c(F)c2)cc(COC(=O)c2ccc(O)c(F)c2)c1)c1ccc(O)c(F)c1 [DLT95-F, [3,5-bis[(4-hydroxy-3-fluoro-benzoyl)oxymethyl]phenyl]methyl 4-hydroxy-3-fluoro-benzoate] |  | 33 ± 2 | activity at 37 µM [3]: 40%
4 | > 1000 | COc1cc(C(=O)O)ccc1O [vanillic acid, reference compound] |  |  | 

Row | Structure (SMILES) | IC50 [2, 4] [µM] | activity at 50 µM [1] [%] | IC50 [2, 5] [µM] | further results
5 | COc1cc(C(=O)OCCOC(=O)c2ccc(O)c(OC)c2)ccc1O [DLT1, Ethane-1,2-diyl bis-(4-hydroxy-3-methoxybenzoate)] | 53 | 50 |  | 
